According to patent publication US20250339569A1, “CARBONIC ANHYDRASE IX LIGANDS” (priority 2021, published 2025):
Read-outs that look alike come from different tables or passages of the source. Starred links: 1 amine or outer side, 2 acyl side, 3 side chain; linkers in the order of their positions; H or OH if unused. Positions of bridges follow the written chain, without caps; N, C: chain ends. Non-standard residues stand in square brackets, D forms with d. Residues, ends and D or L forms follow the SMILES beside them. *: point of attachment. NH(CH2)3NH(O2Oc(DOTA)) = O=C(O)CN1CCN(CC(=O)O)CCN(CC(=O)NCCOCCOCC(=O)NCCCN*)CCN(CC(=O)O)CC1; DOTA = O=C(O)CN1CCN(CC(=O)O)CCN(CC(=O)*)CCN(CC(=O)O)CC1; mXylylene = c1cc(C[*:1])cc(C[*:2])c1; Orn(Me2) = CN(C)CCC[C@H](N)C(=O)O; Trx = NC[C@H]1CC[C@H](C(=O)O)CC1; X2 = O=C(CN1CCC(N[*:1])CC1)[*:2]; tBuAla = CC(C)(C)C[C@H](N)C(=O)O; X1 = O=C(CN1CCN([*:1])CC1)[*:2]; Isovaleryl = CC(C)CC(=O)*; Ac6c = NC1(C(=O)O)CCCCC1; Dap = NC[C@H](N)C(=O)O

Assays:
[1] = Plasma stability assay, mouse plasma; settings: mouse plasma, 37°C, 24 h
[2] = target: T1, human carbonic anhydrase IX (hCAIX-Fc) (Homo sapiens, UniProt Q16790); assay: Surface plasmon resonance assay with hCAIX-Fc; assay type: binding; settings: 25° C.; for Kd: SPR, hCAIX-Fc captured, read-out: pKD category (activity) (converted); for t1/2 category (activity): SPR dissociation half-life, hCAIX-Fc
T1 construct: purchased SinoBliological (Sino Biological) 10107-H02H

[3] = target: T2, CAIX-expressing human HT-29 colorectal cancer cells (Homo sapiens, UniProt Q16790); assay: FACS binding assay (IC50 determination, competition with tracer 3BP-2776 or 3BP-4149); settings: 4° C., 1 hour, read-out: pIC50 category (activity) (converted)
T2 construct: CAIX-expressing human HT-29 colorectal cancer cells; host or cells: HT-29 human colorectal cancer cells
In short: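 HT-29 cells in FACS buffer (PBS, 1% FCS) at 500.000 cells/ml were exposed to compounds competing with a labelled tracer, with biotinylated compounds detected by 1 μg/mL APC-streptavidin for 30 min on ice. APC/Cy5 median fluorescence was read by flow cytometry and IC50 derived by 4PL fit.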

[4] = FACS competition on HT-29 cells, Tracer ID 3BP-2776 (10 nM, biotin-labeled)
[5] = FACS binding assay, HT-29 cells, competition with tracer 3BP-2776 (10 nM, biotin-labeled)

SMILES	% intact compound remaining (incubation time) [1] [%]	Kd [2] [nM]	IC50 [3, 4] [nM]	t1/2 category (activity) [2]	IC50 [3, 5] [nM]
CC(C)C[C@@H]1NC(=O)[C@H](Cc2c[nH]c3ccccc23)NC(=O)[C@H](CC(=O)O)NC(=O)[C@H]2CCCN2C(=O)[C@H](CCC(=O)O)NC(=O)[C@@H](NC(=O)[C@H](Cc2ccc(O)cc2)NC(=O)[C@@H](NC(=O)CN2CCC(NC(=O)CN3CCN(CC(=O)O)CCN(CC(=O)O)CCN(CC(=O)O)CC3)CC2)C(C)C)CSCc2cccc(c2)CSC[C@@H](C(N)=O)NC(=O)[C@H](CO)NC(=O)[C@H](Cc2c[nH]c3ccccc23)NC(=O)[C@H]([C@@H](C)O)NC1=O [3BP-3905] ({DOTA}-[X2]VYCE[dP]DWLTWSC-NH2; linker 4-13 via mXylylene)	83	< 10			
CC(C)CC(=O)N[C@@H](Cc1ccc(O)cc1)C(=O)N[C@H]1CSCc2cccc(c2)CSC[C@@H](C(N)=O)NC(=O)[C@H](CCC(=O)NCCCNC(=O)COCCOCCNC(=O)CN2CCN(CC(=O)O)CCN(CC(=O)O)CCN(CC(=O)O)CC2)NC(=O)[C@H](Cc2c[nH]c3ccccc23)NC(=O)[C@H]([C@@H](C)O)NC(=O)[C@H](CC(C)C)NC(=O)[C@H](Cc2c[nH]c3ccccc23)NC(=O)[C@H](CC(=O)O)NC(=O)[C@H]2CCCN2C(=O)[C@H](CCC(=O)O)NC1=O [3BP-3740] (Isovaleryl-YCE[dP]DWLTWE(NH(CH2)3NH(O2Oc(DOTA)))C-NH2; linker 2-11 via mXylylene)	>95	< 10	< 10	B (t1/2 between 5.1 and 15.0 minutes)	
CC(C)C[C@@H]1NC(=O)[C@H](Cc2c[nH]c3ccccc23)NC(=O)[C@H](CC(=O)O)NC(=O)[C@H]2CCCN2C(=O)[C@H](CCC(=O)O)NC(=O)[C@@H]2CSCc3cccc(c3)CSC[C@@H](C(N)=O)NC(=O)[C@H](CNC(=O)C[C@H](NC(=O)[C@H]3CC[C@H](CNC(=O)CN4CCN(CC(=O)O)CCN(CC(=O)O)CCN(CC(=O)O)CC4)CC3)C(=O)N2)NC(=O)[C@H](Cc2c[nH]c3ccccc23)NC(=O)[C@H]([C@@H](C)O)NC1=O [3BP-4258] ({DOTA-Trx}-DCE[dP]DWLTW[Dap]C-NH2; lactam 1-10; linker 2-11 via mXylylene)	93	< 10		C (t1/2 between 2.1 and 5.0 minutes)	< 10
CC(C)C[C@@H]1NC(=O)[C@H](Cc2c[nH]c3ccccc23)NC(=O)[C@H](CC(=O)O)NC(=O)[C@H]2CCCN2C(=O)[C@H](CCC(=O)O)NC(=O)[C@@H]2CSCc3cccc(c3)CSC[C@@H](C(N)=O)NC(=O)[C@H](CNC(=O)C[C@H](NC(=O)CN3CCN(CC(=O)O)CCN(CC(=O)O)CCN(CC(=O)O)CC3)C(=O)N2)NC(=O)[C@H](Cc2c[nH]c3ccccc23)NC(=O)[C@H]([C@@H](C)O)NC1=O [3BP-4253] ({DOTA}-DCE[dP]DWLTW[Dap]C-NH2; lactam 1-10; linker 2-11 via mXylylene)	>95	< 10		B (t1/2 between 5.1 and 15.0 minutes)	< 10
CC(C)C[C@@H]1NC(=O)[C@H](Cc2c[nH]c3ccccc23)NC(=O)[C@H](CC(=O)O)NC(=O)[C@H]2CCCN2C(=O)[C@H](CCC(=O)O)NC(=O)[C@@H]2CSCc3cccc(c3)CSC[C@@H](C(N)=O)NC(=O)[C@H](CNC(=O)C[C@H](NC(=O)CN3CCN(C(=O)CN4CCN(CC(=O)O)CCN(CC(=O)O)CCN(CC(=O)O)CC4)CC3)C(=O)N2)NC(=O)[C@H](Cc2c[nH]c3ccccc23)NC(=O)[C@H]([C@@H](C)O)NC1=O [3BP-4255] ({DOTA}-[X1]DCE[dP]DWLTW[Dap]C-NH2; lactam 2-11; linker 3-12 via mXylylene)	81	< 10		D (t1/2≤2.0 minutes)	< 10
CC(=O)N[C@@H](CCCCNC(=O)CN1CCN(CC(=O)O)CCN(CC(=O)O)CCN(CC(=O)O)CC1)C(=O)N[C@H](C(=O)N[C@@H](Cc1ccc(O)cc1)C(=O)N[C@H]1CSCc2cccc(c2)CSC[C@@H](C(N)=O)NC(=O)[C@H](CO)NC(=O)[C@H](Cc2c[nH]c3ccccc23)NC(=O)[C@H]([C@@H](C)O)NC(=O)[C@H](CC(C)C)NC(=O)[C@H](Cc2c[nH]c3ccccc23)NC(=O)[C@H](CC(=O)O)NC(=O)[C@H]2CCCN2C(=O)[C@H](CCC(=O)O)NC1=O)C(C)C [3BP-3840] (Ac-K(DOTA)VYCE[dP]DWLTWSC-NH2; linker 4-13 via mXylylene)	>95	< 10	< 10	B (t1/2 between 5.1 and 15.0 minutes)	
CC(C)[C@H](NC(=O)CN1CCC(NC(=O)CN2CCN(CC(=O)O)CCN(CC(=O)O)CCN(CC(=O)O)CC2)CC1)C(=O)N[C@@H](Cc1ccc(O)cc1)C(=O)N[C@H]1CSCc2cccc(c2)CSC[C@@H](C(N)=O)NC(=O)[C@H](CO)NC(=O)[C@H](Cc2c[nH]c3ccccc23)NC(=O)[C@H]([C@@H](C)O)NC(=O)[C@H](CC(C)(C)C)NC(=O)[C@H](Cc2c[nH]c3ccccc23)NC(=O)[C@H](CC(=O)O)NC(=O)[C@H]2CCCN2C(=O)[C@H](CCC(=O)O)NC1=O [3BP-4142] ({DOTA}-[X2]VYCE[dP]DW[tBuAla]TWSC-NH2; linker 4-13 via mXylylene)	91	< 10		A (t1/2>15.0 minutes)	< 10
CC(=O)N[C@@H](CO)C(=O)N[C@@H](Cc1ccc(O)cc1)C(=O)N[C@H]1CSCc2cccc(c2)CSC[C@@H](C(N)=O)NC(=O)[C@H](CCC(=O)NCCCNC(=O)COCCOCCNC(=O)CN2CCN(CC(=O)O)CCN(CC(=O)O)CCN(CC(=O)O)CC2)NC(=O)[C@H](Cc2c[nH]c3ccccc23)NC(=O)[C@H]([C@@H](C)O)NC(=O)[C@H](CC(C)C)NC(=O)[C@H](Cc2c[nH]c3ccccc23)NC(=O)[C@H](CC(=O)O)NC(=O)[C@H]2CCCN2C(=O)[C@H](CCC(=O)O)NC1=O [3BP-3732] (Ac-SYCE[dP]DWLTWE(NH(CH2)3NH(O2Oc(DOTA)))C-NH2; linker 3-12 via mXylylene)	>95	< 10	< 10	B (t1/2 between 5.1 and 15.0 minutes)	
CC(C)C[C@@H]1NC(=O)[C@H](Cc2c[nH]c3ccccc23)NC(=O)[C@H](CC(=O)O)NC(=O)[C@H]2CCCN2C(=O)[C@H](CCC(=O)O)NC(=O)[C@@H](NC(=O)[C@H](Cc2ccc(O)cc2)NC(=O)CN2CCN(CC(=O)O)CCN(CC(=O)O)CCN(CC(=O)O)CC2)CSCc2cccc(c2)CSC[C@@H](C(N)=O)NC(=O)[C@H](CO)NC(=O)[C@H](Cc2c[nH]c3ccccc23)NC(=O)[C@H]([C@@H](C)O)NC1=O [3BP-3906] ({DOTA}-YCE[dP]DWLTWSC-NH2; linker 2-11 via mXylylene)	>95	< 10			
CC(C)[C@H](NC(=O)CN1CCC(NC(=O)CN2CCN(CC(=O)O)CCN(CC(=O)O)CCN(CC(=O)O)CC2)CC1)C(=O)N[C@@H](Cc1ccc(O)cc1)C(=O)N[C@H]1CSCc2cccc(c2)CSC[C@@H](C(N)=O)NC(=O)[C@H](CO)NC(=O)[C@H](Cc2c[nH]c3ccccc23)NC(=O)[C@H]([C@@H](C)O)NC(=O)C2(CCCCC2)NC(=O)[C@H](Cc2c[nH]c3ccccc23)NC(=O)[C@H](CC(=O)O)NC(=O)[C@H]2CCCN2C(=O)[C@H](CCC(=O)O)NC1=O [3BP-3584] ({DOTA}-[X2]VYCE[dP]DW[Ac6c]TWSC-NH2; linker 4-13 via mXylylene)	>95	< 10	< 10	B (t1/2 between 5.1 and 15.0 minutes)	
CC(C)C[C@@H]1NC(=O)[C@H](Cc2c[nH]c3ccccc23)NC(=O)[C@H](CC(=O)O)NC(=O)[C@H]2CCCN2C(=O)[C@H](CCCN(C)C)NC(=O)[C@@H](NC(=O)[C@H](Cc2ccc(O)cc2)NC(=O)[C@@H](NC(=O)CN2CCC(NC(=O)CN3CCN(CC(=O)O)CCN(CC(=O)O)CCN(CC(=O)O)CC3)CC2)C(C)C)CSCc2cccc(c2)CSC[C@@H](C(N)=O)NC(=O)[C@H](CO)NC(=O)[C@H](Cc2c[nH]c3ccccc23)NC(=O)[C@H]([C@@H](C)O)NC1=O [3BP-4096] ({DOTA}-[X2]VYC[Orn(Me2)][dP]DWLTWSC-NH2; linker 4-13 via mXylylene)	93	< 10		B (t1/2 between 5.1 and 15.0 minutes)	< 10
CC(=O)N[C@H](C(=O)N[C@@H](CCCNC(=N)N)C(=O)N[C@H]1CSCc2cccc(c2)CSC[C@@H](C(N)=O)NC(=O)[C@H](CCC(=O)NCCCNC(=O)COCCOCCNC(=O)CN2CCN(CC(=O)O)CCN(CC(=O)O)CCN(CC(=O)O)CC2)NC(=O)[C@H](Cc2c[nH]c3ccccc23)NC(=O)[C@H]([C@@H](C)O)NC(=O)[C@H](CC(C)C)NC(=O)[C@H](Cc2c[nH]c3ccccc23)NC(=O)[C@H](CC(=O)O)NC(=O)[C@H]2CCCN2C(=O)[C@H](CCC(=O)O)NC1=O)C(C)C [3BP-3845] (Ac-VRCE[dP]DWLTWE(NH(CH2)3NH(O2Oc(DOTA)))C-NH2; linker 3-12 via mXylylene)	76				
CC(C)C[C@@H]1NC(=O)[C@H](Cc2c[nH]c3ccccc23)NC(=O)[C@@H]2CCCCNC(=O)CC[C@H](NC1=O)C(=O)N[C@@H](Cc1c[nH]c3ccccc13)C(=O)N[C@@H](CO)C(=O)N[C@H](C(N)=O)CSCc1cccc(c1)CSC[C@H](NC(=O)[C@H](Cc1ccc(O)cc1)NC(=O)CN1CCN(CC(=O)O)CCN(CC(=O)O)CCN(CC(=O)O)CC1)C(=O)N[C@@H](CCC(=O)O)C(=O)N1CCC[C@@H]1C(=O)N2 [3BP-4053] ({DOTA}-YCE[dP]KWLEWSC-NH2; linker 2-11 via mXylylene; lactam 5-8)	91				
